Values joined by “and” are separate entries in the source; they are usually repeats but may differ in a detail not shown here. Equal values may be shown once.
Legend:
[1] = C14 hydroxyl replaced by electron withdrawing group; background statement; cited from earlier work
[2] = test system: BxPC-3 pancreatic cancer cells; assay: Inhibition of triptolide-AS1411 conjugate on the growth of pancreatic cancer cells in vitro (absorbance, MTT); type: cell-based, human; conditions: for Absorbance (24 h) / Absorbance (48 h): replicate wells
Experimental: 5 pancreatic cancer cell lines (MiaPaCa-2, PANC-1, BxPC-3, SW1990 and ASPC-1) used in the experiments were all purchased from Shanghai Cell Bank.
(§1) Fetal bovine serum and two antibiotics were added into the above media so as to form a final culture medium with a final content of 10% and 1%. Cells were incubated in an incubator at 37° C. and with 5% CO2.
Pancreatic cancer cells (MiaPaCa-2, PANC-1, BxPC-3, SW1990 and ASPC-1) were uniformly seeded into a 96-well plate with a low density (1×10^3˜1×10^4, depending on the specific cell lines, and the conditions were referred to Shanghai Cell Bank). After placed in incubator for adhering overnight, the used medium was replaced by a serum free medium containing drug. […] The cells were then incubated in the incubator at 37° C. and with 5% CO2. Cell activities were measured by MTT. The operation was performed for 4 times.

[3] = test system: acute lymphoblastic leukemia T-cells (CCRF-CEM); assay: Inhibition of triptolide-SGC8C conjugate on the growth of cancer cells in vitro (absorbance, MTT); type: cell-based; conditions: replicates, listed as TP
Experimental: Cell lines: acute lymphoblastic leukemia T-cells (CCRF-CEM) and hepatocyte (L-02).
as §1, with “CO2. Growth conditions of the cells were constantly observed and cell counting was performed, and all the experiments were carried out on cells in logarithmic growth phase.” for “CO2.”
Study on anti-cancer activity: acute lymphoblastic leukemia T-cells (CCRF-CEM) and liver cells (L-02) were uniformly seeded into a 96-well plate in a low density (1×10^3˜1×10^4, depending on the specific cell lines) and were placed in an incubator overnight for adhering, the used medium was replaced by a serum free medium containing drug. […] The cells were then cultured in the incubator at 37° C. and with 5% CO2. Cell activities were measured by MTT. The operations were repeated for 3 times.

[4] = design: species or system female nude mice; conditions: female, nude, mouse, in vivo
Text: BxPC-3 cells in logarithmic growth phase were used.
Samples A and B in 2.2.2 were used.

[5] = test system: cancer cells; conditions: background statement; cited from earlier work
[6] = background statement; cited from earlier work

Compound | cytotoxicity compared with TP [1] | Absorbance (24 h) ([2]; 25 nM) | Absorbance (48 h) ([2]; 25 nM) | Absorbance (24 h) ([2]; 50 nM) | Absorbance (48 h) ([2]; 50 nM) | Absorbance (24 h) ([2]; 100 nM) | Absorbance (48 h) ([2]; 100 nM) | Absorbance (24 h) ([2]; 200 nM) | Absorbance (48 h) ([2]; 200 nM) | effect on proliferation of pancreatic cancer cells ([2]; compared with blank references, concentration range 50 nM-200 nM, time and dose dependent) | Absorbance (CCRF-CEM) ([3]; 25 nM) | Absorbance (CCRF-CEM) ([3]; 50 nM) | Absorbance (CCRF-CEM) ([3]; 100 nM) | Absorbance (CCRF-CEM) ([3]; 200 nM) | time after administration at which drug concentration in blood reaches a maximum [4] | concentration that effectively inhibits the growth of the cancer cells [5] | solubility in water [6]
CC(C)[C@]12O[C@H]1[C@@H]1O[C@]13[C@]1(O[C@H]1C[C@H]1C4=C(CC[C@@]13C)C(=O)OC4)[C@@H]2F [Compound M-1] | greater than TP |  |  |  |  |  |  |  |  |  |  |  |  |  |  |  | 
CC(C)[C@]12O[C@H]1[C@@H]1O[C@]13[C@]1(O[C@H]1C[C@H]1C4=C(CC[C@@]13C)C(=O)OC4)[C@@H]2O [Triptolide] |  | 0.745 and 0.764 and 0.718 and 0.690 | 0.296 and 0.322 (2×) and 0.317 | 0.436 and 0.430 and 0.454 and 0.424 | 0.219 and 0.223 and 0.231 and 0.220 | 0.393 and 0.397 and 0.403 and 0.364 | 0.211 and 0.206 and 0.223 and 0.212 | 0.365 and 0.366 and 0.402 and 0.399 | 0.200 and 0.218 and 0.222 and 0.213 | significantly inhibit | 0.7555 and 0.7582 and 0.755 | 0.5502 and 0.5441 and 0.5447 | 0.2608 and 0.2717 and 0.2802 | 0.1902 (2×) and 0.18 | 0.5 h | 2 to 10 ng/mL | not soluble in water
CC(C)[C@]12O[C@H]1[C@@H]1O[C@]13[C@]1(O[C@H]1C[C@H]1C4=C(CC[C@@]13C)C(=O)OC4)[C@H]2F [Compound M-2] | greater than TP |  |  |  |  |  |  |  |  |  |  |  |  |  |  |  | 
